Measured values from patent US20100216823A1 (Pfizer Inc., priority 2007, published 2010).

Legend:
Type in all cases: biochemical
[1] = molecular target: T1, PDE7A (Homo sapiens, UniProt Q13946); experiment: PDE7A [3H]-cAMP scintillation proximity assay (SPA) enzyme inhibition; conditions: for Ki: full length PDE7A in cell lysate, ~25 nM cAMP, Ki from IC50 by Cheng-Prussof equation; for 1C/7A selectivity: ratio PDE1C Ki / PDE7A Ki
T1 construct: cell lysate containing full length PDE7A, PDE7B and PDE1C enzyme; made in house; host or cells: cell lysate
T1 sequence (Q13946 whole entry): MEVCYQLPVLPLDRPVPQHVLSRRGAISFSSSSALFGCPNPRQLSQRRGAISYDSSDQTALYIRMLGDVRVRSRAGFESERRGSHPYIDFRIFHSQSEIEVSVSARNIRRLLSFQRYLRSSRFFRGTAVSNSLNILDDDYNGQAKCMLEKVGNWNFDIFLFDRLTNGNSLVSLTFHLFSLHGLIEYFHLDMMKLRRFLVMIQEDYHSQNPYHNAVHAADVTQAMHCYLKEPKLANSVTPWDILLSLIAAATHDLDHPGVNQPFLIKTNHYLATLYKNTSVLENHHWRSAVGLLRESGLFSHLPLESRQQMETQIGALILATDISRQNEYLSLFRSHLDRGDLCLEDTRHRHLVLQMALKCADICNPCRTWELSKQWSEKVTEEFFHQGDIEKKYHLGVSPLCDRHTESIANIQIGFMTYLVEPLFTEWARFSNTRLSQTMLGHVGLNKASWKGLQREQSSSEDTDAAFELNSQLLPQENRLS
Procedure: (§1) The ability of the compounds of formula (I) to inhibit PDE7 and PDE1 may be measured using the following assay protocol.
(§2) PDE7A, PDE7B and PDE1C enzymes catalyse the hydrolysis of 3′,5′-cyclic adenosine monophosphate (cAMP) to the 5′ adenosine monophosphate, 5′AMP. In a multiwell plate, PDE enzyme, [^3H]-cAMP and the test compounds, are incubated at room temperature. The incubation is terminated by addition of commercially available yttrium silicate scintillation proximity assay (SPA) beads containing zinc sulphate. The yttrium silicate beads preferentially bind linear nucleotides, thus the product of the enzyme reaction, [^3H]-5′AMP binds to the bead to produce a light signal, which is detected by a scintillation counter. The amount of signal produced directly correlates with the amount of product formed, and thus the activity of the enzyme. The maximum signal is obtained where enzyme and substrate are incubated alone. The background signal is measured from wells either containing no enzyme, or from wells containing a supra-maximal concentration of a known PDE 7A/7B/1C inhibitor. Each purified batch of enzyme is quality controlled and its Km, Vmax and specific activity determined from kinetic studies before use in compound inhibition studies. The inhibition of the enzyme, by a test compound, is calculated relative to the maximum and background responses.
(§3) The compound of Example 75 of WO 02/074754, 5′-carboxypropoxy-8′-chloro-spiro[cyclohexane-1-4′-(3′,4′-dihydro)quinazolin]-2′(1′H)-one (referred to as compound A hereafter) was used as a standard for PDE7A and PDE7B. The compound of Example 32 of WO 02/074754, 4-(8′-chloro-2′-oxo-2′,3′-dihydro-1′H-spiro[cyclohexane-1,4′-quinazolin]-6′-yl)benzoic acid (referred to as compound B hereafter) was used as a standard for PDE1C.
(§4) The optimisation of this assay has been carried out using cell lysate containing full length PDE7A, PDE7B and PDE1C enzyme. The concentration of the enzyme in this cell lysate sample is unknown, so the specific activity of the cell lysate is used as a measure to ensure that the same activity per well is used despite any batch-to-batch variation of concentration/activity.
(§5) PDE7A/7B/1C stock enzyme was prepared and kept at −20° C. in appropriately sized aliquots to reduce the number of freeze/thaw cycles. […] PDE7A is diluted to 1/8000, PDE7B to 1/10000 and PDE1C to 1/200000.
(§6) The final assay [cAMP] of ˜25 nM is required, so ˜50 nM [^3H]-cAMP was prepared. 9 ml of substrate solution was prepared by mixing 10.8 μl of [^3H]-cAMP (available from Amersham) with 8975 μl of assay buffer.
(§7) 1 μl test compound was transferred into a suitable multi-well assay plate immediately prior to reagent assay addition, 14 μl enzyme solution was then added to the assay plate, followed by 15 μl substrate solution (ie: final assay volume 30 μl, with a final screening compound concentration of 1 μM for PDE7A and PDE7B and 10 μM for PDE1C). The plate was then sealed using a plate sealer and incubated at room temperature for 45 min on the plate shaker.
(§8) 30 μl Yttrium Silicate PDE4 SPA beads were then added, ensuring constant stirring of the beads to give even distribution in the assay plate. The plate was then sealed using a plate sealer and incubated at room temperature for 30 mins on the plate shaker. The beads were then allowed to settle for 30 mins, before spinning the plates for 1 min at 200 g.
(§9) The plates were then read on a suitable radioactive counter, for example NXT-TopCount™ (available from Perkin Elmer) using the relevant protocol (30 second read time per well).
(§10) The data was fitted to a sigmoid curve using a least squares algorithm.
(§11) The IC50 value was converted to a value using the Cheng-Prussof equation: […]

[2] = molecular target: T2, PDE7B (Homo sapiens, UniProt Q9NP56); experiment: PDE7B [3H]-cAMP scintillation proximity assay (SPA) enzyme inhibition; conditions: for Ki: full length PDE7B in cell lysate, ~25 nM cAMP, Ki from IC50 by Cheng-Prussof equation; for 1C/7B selectivity: ratio PDE1C Ki / PDE7B Ki
T2 construct: cell lysate containing full length PDE7A, PDE7B and PDE1C enzyme; made in house; host or cells: cell lysate
T2 sequence (Q9NP56 whole entry): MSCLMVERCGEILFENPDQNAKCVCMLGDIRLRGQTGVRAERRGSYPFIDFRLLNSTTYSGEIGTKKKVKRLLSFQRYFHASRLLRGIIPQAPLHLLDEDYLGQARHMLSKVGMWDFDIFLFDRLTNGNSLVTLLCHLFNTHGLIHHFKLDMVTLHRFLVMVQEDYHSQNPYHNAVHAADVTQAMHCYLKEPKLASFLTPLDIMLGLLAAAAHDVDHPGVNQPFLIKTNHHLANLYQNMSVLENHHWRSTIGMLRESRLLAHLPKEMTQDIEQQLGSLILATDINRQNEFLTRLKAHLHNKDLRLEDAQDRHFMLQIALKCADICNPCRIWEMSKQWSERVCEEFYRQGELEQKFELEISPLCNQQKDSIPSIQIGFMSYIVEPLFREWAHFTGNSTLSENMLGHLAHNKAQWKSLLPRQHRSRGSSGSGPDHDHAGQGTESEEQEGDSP
Procedure: as §1, §2, §3, §4, §5, §6, §7, §8, §9, §10, §11

[3] = molecular target: T3, PDE1C (Homo sapiens, UniProt Q14123); experiment: PDE1C [3H]-cAMP scintillation proximity assay (SPA) enzyme inhibition; conditions: full length PDE1C in cell lysate; 75 nM cAMP; Ki from IC50 by Cheng-Prussof equation
T3 construct: cell lysate containing full length PDE7A, PDE7B and PDE1C enzyme; made in house; host or cells: cell lysate
T3 sequence (Q14123 whole entry): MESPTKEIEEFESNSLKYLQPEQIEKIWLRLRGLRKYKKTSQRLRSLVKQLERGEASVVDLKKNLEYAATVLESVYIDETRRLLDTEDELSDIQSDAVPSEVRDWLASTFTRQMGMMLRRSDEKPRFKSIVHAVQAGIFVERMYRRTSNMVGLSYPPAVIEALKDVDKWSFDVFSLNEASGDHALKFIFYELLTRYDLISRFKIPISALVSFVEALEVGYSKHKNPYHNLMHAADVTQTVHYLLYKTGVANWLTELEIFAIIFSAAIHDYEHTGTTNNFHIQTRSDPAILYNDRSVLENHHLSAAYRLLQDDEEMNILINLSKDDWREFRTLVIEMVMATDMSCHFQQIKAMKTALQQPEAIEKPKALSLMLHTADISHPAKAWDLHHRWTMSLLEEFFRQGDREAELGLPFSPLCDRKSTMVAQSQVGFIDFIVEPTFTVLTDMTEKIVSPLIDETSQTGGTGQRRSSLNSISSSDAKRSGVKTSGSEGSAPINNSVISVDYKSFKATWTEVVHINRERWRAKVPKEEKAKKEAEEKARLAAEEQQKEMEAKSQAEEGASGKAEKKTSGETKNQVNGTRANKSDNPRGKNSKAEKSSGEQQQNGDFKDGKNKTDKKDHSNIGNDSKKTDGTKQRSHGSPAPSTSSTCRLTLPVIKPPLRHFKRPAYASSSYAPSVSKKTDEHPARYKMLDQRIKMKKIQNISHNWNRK
Procedure: as §1, §2, §3, §4, §5
The final assay [cAMP]=75 nM therefore the required solution [cAMP]=0.15 μM (1/2 dilution in assay plate)
as §7, §8, §9, §10, §11

How did the Ki [1] turn out when `O=C1Nc2c(F)ccc(Oc3c(Cl)cccc3C(=O)O)c2C2(CCCCC2)N1` [Example 9, 3-chloro-2-{(8′-fluoro-2′-oxo-2′,3′-dihydro-1′H-spiro[cyclohexane-1,4′-quinazolin]-5′-yl)oxy}benzoic acid] was run?
The Ki was 32 nM.

What about the 1C/7A selectivity [1] of the same molecule?
The 1C/7A selectivity was >116.

And the Ki [2]?
The Ki was 41 nM.

What about the 1C/7B selectivity [2] of the same molecule?
The 1C/7B selectivity was >92.

What about the Ki [3] of the same molecule?
The Ki was > 3750 nM.

For `O=C1Nc2c(Cl)ccc(Oc3c(F)cccc3-c3nn[nH]n3)c2C2(CCCCC2)N1` [Example 10, 8′-chloro-5′-[2-fluoro-6-(2H-tetrazol-5-yl)phenoxy]-1′H-spiro[cyclohexane-1,4′-quinazolin]-2′(3′H)-one], which Ki [1] is on record?
Its Ki is 0.1 nM.

What about the 1C/7A selectivity [1] of the same molecule?
Its 1C/7A selectivity is 743.

What about the Ki [2] of the same molecule?
The Ki was 0.4 nM.

What about the 1C/7B selectivity [2] of the same molecule?
Its 1C/7B selectivity is 186.

And the Ki [3]?
Its Ki is 73 nM.

How did the Ki [1] turn out when `O=C1Nc2c(Cl)ccc(Oc3ccc(F)cc3-c3nn[nH]n3)c2C2(CCCCC2)N1` [Example 11, 8′-chloro-5′-[4-fluoro-2-(1H-tetrazol-5-yl)phenoxy]-1′H-spiro[cyclohexane-1,4′-quinazolin]-2′(3′H)-one] was run?
Its Ki is < 0.2 nM.

And the 1C/7A selectivity [1]?
Its 1C/7A selectivity is >307.

And the Ki [2]?
Its Ki is 1 nM.

And the 1C/7B selectivity [2]?
The 1C/7B selectivity was 70.

What about the Ki [3] of the same molecule?
Its Ki is 70 nM.

With `O=C1Nc2c(F)ccc(Oc3c(F)cccc3-c3nn[nH]n3)c2C2(CCCCC2)N1` [Example 12] as the molecule, how does the Ki [1] read?
The Ki was 0.3 nM.

What about the 1C/7A selectivity [1] of the same molecule?
Its 1C/7A selectivity is 301.

What about the Ki [2] of the same molecule?
The Ki was 0.7 nM.

What about the 1C/7B selectivity [2] of the same molecule?
Its 1C/7B selectivity is 123.

What about the Ki [3] of the same molecule?
The Ki was 89 nM.

How did the Ki [1] turn out when `O=C1Nc2c(Cl)ccc(Oc3ccc(F)cc3-c3nnn[nH]3)c2C2(CCCC2)N1` [Example 13, 8′-chloro-5′-[4-fluoro-2-(1H-tetrazol-5-yl)phenoxy]-1′H-spiro[cyclopentane-1,4′-quinazolin]-2′(3′H)-one] was run?
The Ki was 1.7 nM.

What about the 1C/7A selectivity [1] of the same molecule?
Its 1C/7A selectivity is 523.

What about the Ki [2] of the same molecule?
Its Ki is 7.2 nM.

And the 1C/7B selectivity [2]?
The 1C/7B selectivity was 119.

What about the Ki [3] of the same molecule?
The Ki was 862 nM.

With `O=C1Nc2c(Cl)ccc(Oc3c(F)cccc3-c3nn[nH]n3)c2C2(CCCC2)N1` [Example 14, 8′-chloro-5′-[6-fluoro-2-(1H-tetrazol-5-yl)phenoxy]-1′H-spiro[cyclopentane-1,4′-quinazolin]-2′(3′H)-one] as the molecule, how does the Ki [1] read?
Its Ki is 2.4 nM.

What about the 1C/7A selectivity [1] of the same molecule?
The 1C/7A selectivity was 301.

And the Ki [2]?
The Ki was 4.4 nM.

What about the 1C/7B selectivity [2] of the same molecule?
Its 1C/7B selectivity is 165.

What about the Ki [3] of the same molecule?
The Ki was 723 nM.

Which results are given for `O=C1Nc2c(Cl)ccc(Oc3c(Cl)cccc3-c3nn[nH]n3)c2C2(CCCC2)N1` [Example 15, 8′-chloro-5′-[6-chloro-2-(1H-tetrazol-5-yl)phenoxy]-1′H-spiro[cyclopentane-1,4′-quinazolin]-2′(3′H)-one]?
Ki [1]: 5 nM; 1C/7A selectivity [1]: 217; Ki [2]: 6.6 nM; 1C/7B selectivity [2]: 164; Ki [3]: 1080 nM

How did the Ki [1] turn out when `O=C1Nc2c(Cl)ccc(Oc3ccccc3-c3nn[nH]n3)c2C2(CCCC2)N1` [Example 16, 8′-chloro-5′-[2-(1H-tetrazol-5-yl)phenoxy]-1′H-spiro[cyclopentane-1,4′-quinazolin]-2′(3′H)-one] was run?
Its Ki is 2.3 nM.

What about the 1C/7A selectivity [1] of the same molecule?
The 1C/7A selectivity was 345.

And the Ki [2]?
The Ki was 9.8 nM.

And the 1C/7B selectivity [2]?
Its 1C/7B selectivity is 79.

What about the Ki [3] of the same molecule?
Its Ki is 778 nM.

What does the source list for `O=C1Nc2c(Cl)ccc(Oc3ccccc3-c3nnn[nH]3)c2C2(CCCCC2)N1` [Example 17, 8′-chloro-5′-[2-(1H-tetrazol-5-yl)phenoxy]-1′H-spiro[cyclohexane-1,4′-quinazolin]-2′(3′H)-one]?
Ki [1]: < 0.15 nM; 1C/7A selectivity [1]: >245; Ki [2]: 0.8 nM; 1C/7B selectivity [2]: 48; Ki [3]: 37 nM

`O=C1Nc2c(Cl)ccc(Oc3c(F)cccc3-c3noc(=O)[nH]3)c2C2(CCCCC2)N1` [Example 18, 8′-chloro-5′-[2-fluoro-6-(5-oxo-4,5-dihydro-1,2,4-oxadiazol-3-yl)phenoxy]-1′H-spiro[cyclohexane-1,4′-quinazolin]-2′(3′H)-one] was tested. Which Ki [1] did it give?
The Ki was 1.1 nM.

And the 1C/7A selectivity [1]?
The 1C/7A selectivity was 85.

What about the Ki [2] of the same molecule?
The Ki was 1.6 nM.

What about the 1C/7B selectivity [2] of the same molecule?
The 1C/7B selectivity was 59.

And the Ki [3]?
Its Ki is 94 nM.

What does the source list for `O=C1Nc2c(Cl)ccc(Oc3c(F)cccc3-c3n[nH]c(=O)[nH]3)c2C2(CCCCC2)N1` [Example 19, 8′-chloro-5′-[2-fluoro-6-(5-oxo-4,5-dihydro-1H-1,2,4-triazol-3-yl)phenoxy]-1′H-spiro[cyclohexane-1,4′-quinazolin]-2′(3′H)-one]?
Ki [1]: 0.94 nM; 1C/7A selectivity [1]: 183; Ki [2]: 1.5 nM; 1C/7B selectivity [2]: 115; Ki [3]: 172 nM

Which results are given for `CS(=O)(=O)NC(=O)c1cccc(F)c1Oc1ccc(Cl)c2c1C1(CCCCC1)NC(=O)N2` [Example 20, 2-[(8′-chloro-2′-oxo-2′,3′-dihydro-1′H-spiro[cyclohexane-1,4′-quinazolin]-5′-yl)oxy]-3-fluoro-N-(methylsulfonyl)benzamide]?
Ki [1]: 2.3 nM; 1C/7A selectivity [1]: 290; Ki [2]: 7 nM; 1C/7B selectivity [2]: 94; Ki [3]: 657 nM

With `O=C1Nc2c(Cl)ccc(Oc3c(F)cccc3NS(=O)(=O)C(F)(F)F)c2C2(CCCCC2)N1` [Example 21, N-{2-[(8′-chloro-2′-oxo-2′,3′-dihydro-1′H-spiro[cyclohexane-1,4′-quinazolin]-5′-yl)oxy]-3-fluorophenyl}-1,1,1-trifluoromethanesulfonamide] as the molecule, how does the Ki [1] read?
The Ki was 0.2 nM.

What about the 1C/7A selectivity [1] of the same molecule?
Its 1C/7A selectivity is 311.

What about the Ki [2] of the same molecule?
Its Ki is 2.4 nM.

And the 1C/7B selectivity [2]?
Its 1C/7B selectivity is 25.

And the Ki [3]?
Its Ki is 62 nM.

Which Ki [1] does the source give for `O=C(O)COc1ccccc1Oc1ccc(Cl)c2c1C1(CCCCC1)NC(=O)N2` [Example 23, {2-[(8′-chloro-2′-oxo-2′,3′-dihydro-1′H-spiro[cyclohexane-1,4′-quinazolin]-5′-yl)oxy]phenoxy}acetic acid] here?
Its Ki is 0.48 nM.

What about the 1C/7A selectivity [1] of the same molecule?
Its 1C/7A selectivity is 121.

And the Ki [2]?
The Ki was 1.9 nM.

And the 1C/7B selectivity [2]?
The 1C/7B selectivity was 31.

What about the Ki [3] of the same molecule?
Its Ki is 58 nM.

What does the source list for `O=C(O)COc1ccc(Oc2ccc(Cl)c3c2C2(CCCCC2)NC(=O)N3)cc1` [Example 24, {4-[(8′-chloro-2′-oxo-2′,3′-dihydro-1′H-spiro[cyclohexane-1,4′-quinazolin]-5′-yl)oxy]phenoxy}acetic acid]?
Ki [1]: 0.98 nM; 1C/7A selectivity [1]: 160; Ki [2]: 11 nM; 1C/7B selectivity [2]: 14; Ki [3]: 157 nM
